Assay [1] has as its target T1, full-length NS3/4A genotype 1b mutant R155K (Hepatitis C virus genotype 1b, UniProt Q9WMX2, R1181K).
T1 construct: wild-type HCV NS3 (HCV polyprotein residues 1027–1657); His-tag (N); made in house
The assay is described as follows: Inhibition assay with drug-resistant mutant R155K. It counts as biochemical. The protocol: The full-length genes of wild-type HCV NS3 (HCV polyprotein residues 1027–1657) with a his-tag at the N-terminus and NS4A (residues 1658–1711) with no tag were cloned, co-expressed, and purified as described. Eight NS3 drug resistant mutants (V36M, V36A, T54A, R155K, R155T, A156T, A156S, and 156V) were generated by mutagenesis using full-length, wild-type NS3-containing recombinant plasmid (pETDuet-1/FL NS3/4A) as a template. The over-expression and purification of all mutants were performed by the same method as the wild-type with minor modifications.
The inhibitory activity of the final hit compounds from HTS were tested against three other HCV genotypes (1a, 2a, and 4d), along with a control (genotype 1b) and five NS3 drug-resistant mutants. Eight full-length NS3 mutants (V36M, R155K, A156T, A156S, 156V, V36A, T54A, and R155T) were generated by mutagenesis and purified, and the three HCV NS3/4A protease genotypes were purchased from Anaspec. Unfortunately the enzyme activities of the three mutants V36A, T54A, and R155T were much less than that of the rest of the mutants and were insufficient for testing, therefore mutant studies were done with the five active mutants. Continuous kinetic assays were performed against all hit compounds in the same way as the wild-type NS3/4A. […]

Assay [2] addresses T2, full-length NS3/4A protease (genotype 1b) (Hepatitis C virus genotype 1b, UniProt Q9WMX2).
T2 construct: wild-type HCV NS3 (HCV polyprotein residues 1027–1657); His-tag (N); made in house
As to the kind of experiment: biochemical. The protocol: All assays were done in duplicate in black 384-well plates (Matrix Technologies). […] 200 nL of 10 mM compound (50 µM final concentrations) were then added and incubated for 5 minutes. Enzyme reactions were initiated with 10 µL of substrate Ac-DE-Dap(QXL520)-EE-Abu-ψ-[COO]AS-C(5-FAMsp)-NH2 (Anaspec) (1 µM final concentration), incubated for 6 minutes, and quenched by 10 µL of 10% SDS as a stop solution. Fluorescence intensity was monitored with a POLARstar OPTIMA microplate reader (BMG LABTECH). Each plate contained a total of 32 positive and 32 negative controls.
(§1) A series of compound concentrations (0 to 200 µM final concentration at 2-fold serial dilution) in 100% DMSO were prepared in a 384-well plate. 20 µL of enzyme solution was distributed to wells, and 0.5 µL of varying concentration of compounds were added and incubated for 5 minutes. The enzyme reaction was initiated by adding 5 µL of the substrate, and its activity was continuously monitored for 6 minutes. The IC50 values were calculated by fitting with the Hill equation (1), with OriginPro 8.5 (OriginLab, Inc.) where y is percent inhibition, x is inhibitor concentration, n is the slope of the concentration–response curve (Hill slope), and Vmax is maximal inhibition from two to four independent assays. [drawing 1] (1)

Assay [3] concerns the target T3, full-length NS3/4A (Hepatitis C virus genotype 1b, UniProt Q9WMX2).
T3 construct: wild-type HCV NS3 (HCV polyprotein residues 1027–1657); His-tag (N); made in house
As to the kind of experiment: SPR binding assay (dissociation equilibrium constant KD). To be noted: double referenced with blank and unrelated reference protein. The protocol:
The full-length NS3/4A enzyme was prepared in a storage buffer (50 mM HEPES, pH 7.6, 500 mM NaCl, 1 mM DTT, 0.2% Triton X-100, and 20% glycerol) and immobilized on a CM5 sensor chip using standard amine-coupling at 25°C with running buffer HBS-P (10 mM HEPES, 150 mM NaCl, 0.05% surfactant P-20, pH 7.4) using a Biacore T100 instrument. Flow channels 1 and 3 were activated by 1-ethyl-3-(3-dimethylaminopropyl) carbodiimide hydrocholoride (EDC)/N-hydroxy succinimide (NHS) mixture, and the activated surface was blocked by ethanolamine (pH 8.5) as controls. The NS3/4A enzyme was diluted in 10 mM sodium acetate (pH 5.0), and immobilized to flow channel 4 after sensor surface activation with EDC/NHS with a 7 min injection followed by ethanolamine blocking on unoccupied surface area. NS3/4A immobilization level was ∼8,500 response units (RU). An unrelated reference protein (92 kDa) was also immobilized to flow channel 2 as another control to be compared with NS3/4A (74.6 kDa). Fifteen initial hit compounds were prepared as 10 mM DMSO stock solutions. Compound solutions with a series of increasing concentrations (0–200 µM at 1.5-fold dilution) were applied to all four channels at a 10 µL/min flow rate at 25°C. Sensorgrams were analyzed using Biaevaluation software 2.0.3, and response unit difference (ΔRU) values at each concentration were measured during the equilibration phase. Data were either single referenced with a blank (enthanolamine) or double referenced with both blank and reference protein RU values. SigmaPlot 11.0 was used to fit the data to a single rectangular hyperbolic curve to determine KD values. The hyperbola function, y = ymax·x/(KD+x), was used to plot response units and corresponding concentration, where y is the response, ymax is the maximum response, and x is the compound concentration.

The target in assay [4] is NS3/4A protease genotype 4d (Hepatitis C virus subtype 4d, UniProt Q1ZZ56). The assay is described as follows: Inhibition assay with NS3/4A from genotype 4d. It counts as biochemical. The protocol:
(§2) The inhibitory activity of the final hit compounds from HTS were tested against three other HCV genotypes (1a, 2a, and 4d), along with a control (genotype 1b) and five NS3 drug-resistant mutants. Eight full-length NS3 mutants (V36M, R155K, A156T, A156S, 156V, V36A, T54A, and R155T) were generated by mutagenesis and purified, and the three HCV NS3/4A protease genotypes were purchased from Anaspec. Unfortunately the enzyme activities of the three mutants V36A, T54A, and R155T were much less than that of the rest of the mutants and were insufficient for testing, therefore mutant studies were done with the five active mutants. Continuous kinetic assays were performed against all hit compounds in the same way as the wild-type NS3/4A. As a control, full-length NS3/4A (genotype 1b) was tested under the same conditions for direct comparison for each plate.

Assay [5] concerns the target T4, NS3/4A protease genotype 2a (Hepatitis C virus genotype 2a, UniProt Q99IB8).
T4 construct: against the NS3/4A protease domains from three additional HCV genotypes (1a, 2a, and 4d); purchased Anaspec
As to the kind of experiment: Inhibition assay with NS3/4A from genotype 2a. It counts as biochemical. Here is the method:
as §2

Assay [6] addresses T3, full-length NS3/4A. As to the kind of experiment: Type (mechanism) of enzyme inhibition, kinetic analysis. The assay is classed as biochemical. Here is the method: Full-length NS3/4A activity was monitored in the same way as the primary screening with varying concentration of both inhibitor compounds and substrate (0–8 µM). The concentration of compounds varied from 0 to 20 µM at 1.5-fold dilution factor.

Assay [7] addresses T5, NS3 protease domain (Hepatitis C virus genotype 1b, UniProt Q9WMX2).
T5 construct: the full-length NS3/4A and the NS3/4A protease domain alone
The assay is described as follows: Fluorescence enzymatic assay with NS3 protease domain alone. The assay is classed as biochemical. The following applies: NS3/4A protease domain only; read-out: IC50 NS3 protease domain. Here is the method:
as §1

Consider `Cc1cc(NC(=O)Cc2csc(NS(=O)(=O)c3ccccc3)n2)ccc1Br` [Compound 12], for which the IC50 in assay [1] was not above 20 µM; in assay [2] (purified full-length NS3/4A, genotype 1b wild-type, read-out: IC50 Full-length NS3/4A), 2.2 ± 0.4 µM; in assay [4], less than 20 µM; in assay [5] (IC50 Purified NS3/4A Sub-genotype 2a, genotype 2a) it was 12.7 ± 1.2 µM; in assay [7], 9.3 ± 1.6 µM. The LE in assay [2] (calculated with IC50 values from the full-length NS3/4A) is 0.29 kcal/mol/heavy atom. For the same compound, the “SPR binding to NS3/4A, double referenced” value in assay [3] is “specific binding”. In assay [5] (purified enzymes), the “fold less effective against genotype 2a than 1b in the biochemical assay” value is on record as approximately 6 fold. The Ki in assay [6] (competitive model, with respect to substrate) amounted to 3.5 µM. Further, the mechanism of inhibition entry in assay [6] (with respect to the substrate, best fit model) is given as “competitive inhibitors”.

In general, Ki refers to the dissociation constant of the complex between target and ligand, obtained from inhibition or displacement.

The values above are taken from paper PMC3793977, “High-Throughput Screening (HTS) and Hit Validation to Identify Small Molecule Inhibitors with Activity against NS3/4A proteases from Multiple Hepatitis C Virus Genotypes” (PLoS ONE, 2013).
